Reference: PMC10251509, “Ultrafast Fragment Screening Using Photo-Hyperpolarized (CIDNP) NMR” (Journal of the American Chemical Society, 2023)
Where a SMILES comes first, the peptide text is derived from it.

Biological target: T1, PDZ2 domain of human tyrosine phosphatase 1E (hPTP1E) (Homo sapiens, UniProt Q12923)
T1 construct: the PDZ2 domain of human tyrosine phosphatase 1E (hPTP1E); polyhistidine (N); made in house; host or cells: Escherichia coli BL21 (DE3)
T1 sequence (Q12923 1368-1452 limits assumed): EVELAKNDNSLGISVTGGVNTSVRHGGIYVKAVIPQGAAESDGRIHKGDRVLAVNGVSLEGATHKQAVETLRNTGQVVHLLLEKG
Assay: [15N,1H]-HSQC chemical shift perturbation / titration of peptides with PDZ2 domain
Type: binding
Settings: [15N,1H]-HSQC-based titration series, calculated by Titan
Source text: To establish a proof of concept, we decided to design and study peptides that bind to the PDZ2 domain of human tyrosine phosphatase comprising a tryptophane at the N-terminus of the peptides for detection by photo-CIDNP since tryptophane is known to be well polarized in the presence of fluorescein.[10],[25] The positive and negative control peptides (i.e., WVSAV and WEKLQT, respectively) were then checked in their binding capacity using [^15N,^1H]-HSQC experiments (Figure 2A,C).
Figure 2 Peptide binding studies of peptides to the PDZ2 domain of the human tyrosine phosphatase by standard chemical shift perturbation 2D NMR experiments and photo-CIDNP 1D ^1H NMR. (A) and (C) 2D [^15N,^1H]-HSQC spectra of the ^15N-labeled PDZ2 domain in the absence (black) and presence (green) of the peptide WVSAV (A) or WEKLQT (C), the experiments were recorded each within ca. 30 min. Photo-CIDNP ^1H 1D NMR spectra of the tryptophane aromatic resonances of (B) WVSAV and (D) WEKLQT in the absence (black lines) and presence (green lines) of the PDZ2 domain of the human tyrosine phosphatase, the experiments were recorded each within ca. 5 s. All of the 1D NMR spectra are single-scan experiments and were recorded with 100 μM peptide, ±100 μM PDZ2 domain at 298 K. The hyperpolarization was triggered by 4 s of light irradiation (450 nm, 1 W) in the presence of 25 μM fluorescein in photo-CIDNP buffer. […]

Kd: 111 ± 3.3 µM
SMILES: CC(C)[C@H](NC(=O)[C@H](C)NC(=O)[C@H](CO)NC(=O)[C@@H](NC(=O)[C@@H](N)Cc1c[nH]c2ccccc12)C(C)C)C(=O)O [WVSAV] (H-WVSAV-OH)
